Reference: US20110123483A1, “HMGB1 FOR CANCER TREATMENT” (DEUTSCHES KREBSFORSCHUNGSZENTRUM, priority 2009, published 2011)

Key:
U251MG glioma cells = test: Cell proliferation, counting in a Neubauer chamber; assay type: cell-based, human; conditions: increasing concentrations, several days (FIG. 1A)
Experimental: (§1) 20,000 U251MG glioblastoma cells or human astrocytic cells (ScienCell) were plated into 96-well plates. After 24 h cells were treated with rhHMGB1 (Sigma Aldrich) or rat recombinant HMGB1 (generously provided by Angelika Bierhaus, Heidelberg, Germany), and TRAIL (for 24 h) or Temozolomide (for 72 h) alone or in combination, respectively. Cell survival was measured by crystal violet staining as described previously (Gdynia et al., 2007). Cell proliferation was assessed by seeding 50,000 U251 MG cells in 6 cm culture plates and treatment with rhHMGB1, followed by counting the cells in a Neubauer chamber at day 0, 2, 4 and 5.

[1] = test system: U251MG glioblastoma cells; test: Cytotoxicity assay, cell survival by crystal violet staining; assay type: cell-based, human
Experimental: as §1, with “Cell survival was measured by crystal violet staining as described previously (Gdynia et al., 2007).” left out

[2] = test system: non-immortalized human astrocytic cells; test: as above; assay type: cell-based; conditions: 72 h (FIG. 1B)
Experimental: U251 glioblastoma cells and non-immortalized human astrocytic cells (ScienCell, USA) were maintained in DMEM (Life Technologies) containing 10% FCS, 4.5 g/L glucose, glutamine, 110 mg/L sodium pyruvate, and 1% penicillin-streptomycin (Life Technologies) and in astrocyte medium (ScienCell) containing 2% FBS (fetal bovine serum) and 1% penicillin-streptomycin at 37° C. and 5% CO2. For the generation of pseudo rho zero cells (0.0), U251 MG cells were treated with low dose (250 ng/ml) ethidiumbromide for 3 months. The cells were supplemented with DMEM (10% FCS, 1% P/S) containing 50 μg/ml L-pyruvate and 5 mg/ml uridine (King and Attardi, 1989).
as §1

JNK1/2 = test: Western blot analysis of JNK1/2 phosphorylation; assay type: cell-based, human; conditions: 24 h (FIG. 3C)
Experimental: The U251 MG tumor cells were lysed in lysis buffer containing 20 mmol/L Tris-HCl (pH 7.4), 137 mmol/L NaCl, 10% (v/v) glycerine, 1% Triton X-100, 2 mmol/L EDTA, 100 mmol/L phenylmethylsulfonyl fluoride, and protease inhibitors (Complete mini; Roche Molecular Biochemicals). For the detection of phosphoprotein levels, 10 mmol/L NaPPi, 50 mmol/L NaF, and 20 mmol/L NaVO4 were added to the lysis buffer. After 15 min incubation on ice, the lysates were centrifuged at 14,000×g for 10 min. The total protein concentration of the lysates was measured using the Bradford assay (Bio-Rad). Soluble protein (25-100 μg per lane) was separated on 10% to 15% polyacrylamide gels and blotted onto nitrocellulose by standard procedures. […]

mitochondrial proteome = test: 2-D gel electrophoresis / 2-D western blot of the mitochondrial proteome; assay type: cell-based, human
Experimental: Mitochondrial extracts of U251 MG cells precipitated according to the ProteoExtract Protein Precipitation Kit (Calbiochem) were pipetted into the sample cup of each strip holder. For large format 2-D-electrophoresis with silver staining and 2-D-western blots, isoelectric focusing (IEF) was performed as described previously (Schutt et al., 2002) using dry polyacrylamide gel strips (IPG, 24 cm) with an immobilized pH gradient pH 3-10 and the IPGphor1 Isolectric Focusing System (Amersham Pharmacia Biotech). IPG strips were rehydrated in reswelling buffer (7 M urea, 2 M thiourea, 2% (w/v) CHAPS, 65 mM dithiothreitol (DTT), 0.8% Pharmalite) overnight. The IEF protocol started at 500 V for 4 h, followed by an increase from 500 V to 4000 V for 10 h and finally 8000 V for 10 h. Equilibration buffer for IPG strips contained 75 mM Tris-HCl, pH 8.8, 2% SDS, 6 M urea, 29.3% glycerol and 0.002% (w/v) bromophenol blue solution, supplemented with 1.5% DDT for the first 15 min and with 2.5% (w/v) iodoacetamide for the following 15 min. For the second dimension the ETTAN Dalt six electrophoresis system was used. After draining the equilibration solution on filter paper the IPG strips were placed on the SDS gel; the electrical settings were 10 mA/gel, 80 V, 1 W/gel for 1 h, followed by 40 mA/gel, 500 V, 13 W/gel for 5-6 h. […]

In the case of “rhHMGB1: recombinant human High Mobility Group B1 protein (Sigma Aldrich)”, the “induction of cell death” value (U251MG glioma cells) is reported as “induction of cell death even at low nanomolar concentrations”, the tumor cell proliferation (U251MG glioma cells) is reported as “strong inhibition” and the “cell death, combined treatment with TRAIL” value ([1]; 4 nM rhHMGB1 and TRAIL, 24 h (FIG. 1C)) is reported as “strong synergistic induction of cell death”. The “cell death, combined treatment with Temozolomide” value ([1]; 4 nM rhHMGB1 and temozolomide, 72 h (FIG. 1C)) was “strong synergistic induction of cell death”, the cell death ([1]; 80 nM, after 48 h) was “substantial cell death” and the “susceptibility to rhHMGB1-induced cell death” value ([1]; 72 h (FIG. 1B)) was “susceptible”. The “susceptibility to rhHMGB1-induced cell death” value [2] was “not human non-immortalized astrocytes were susceptible”, the “phosphorylation of c-Jun N-terminal kinase 1/2 (JNK)” value (JNK1/2) was “continuous and dose dependent phosphorylation” and the “mitochondrial proteome, 2-D silver staining” value (mitochondrial proteome; 80 nM, 24 h (FIG. 11B)) was “massive depletion of the isoelectric-neutral proteins”. For the same substance, the “covalently bound malondialdehyde, 2-D western blot” value (mitochondrial proteome; alkaline range (FIG. 11C)) was “substantial increase in covalently bound malondialdehyde”.
